We go through six molecules from PMC4257560, “Synthesis and Functional Characterization of Substituted Isoquinolinones as MT2-Selective Melatoninergic Ligands” (PLoS ONE, 2014).

Marks after values point to notes of the source that are not given here. Some results are limits rather than exact numbers.

Series [1] concerns the target T1, MT1 (Homo sapiens, UniProt P48039). Briefly: Immunodetection of ERK phosphorylation in MT1-CHO cells. It counts as cell-based. The arrangement: expressed in transfected cells. Conditions: immunoblot. As to the method: (§1) CHO cells expressing MT1 or MT2 were serum-starved before treating with the indicated concentrations of melatonin or individual tested compounds. Resolved proteins were electrotransferred for immunodetection using phosphorylated ERK-specific antibody.
(§2) (A) CHO cells expressing MT1 or MT2 were treated with the indicated concentrations of 7e or luzindole in the absence or presence of a fixed concentration of melatonin (MLT) (for both MT1 or MT2) or 7b (for MT2 only). Other experimental details were as to the legend of Figure 5. Data shown were representative blots of three separate trials. (B) CHO cells expressing MT2 were treated with increasing concentrations (1 ρM – 1 µM) of melatonin in the absence or presence of 10 µM or 1 µM of 7e or 7f. Other experimental details were as to the legend of Figure 4.
(§3) 2×10^5 cells were seeded into each well of 12-well plates for overnight before serum withdrawal for 4 h to reduce the basal ERK phosphorylation. Tested compounds were diluted in serum-free culture medium at desired concentrations and treated the cells for 5 min. Reactions was stopped by aspiration and then adding 150 µl of lysis buffer with protease inhibitors (50 mM Tris–HCl, pH 7.5, 100 mM NaCl, 5 mM EDTA, 40 mM NaP2O7, 1% Triton X-100, 1 mM dithiothreitol, 200 µM Na3VO4, 100 µM phenylmethylsulfonyl fluoride, 2 µg/ml leupeptin, 4 µg/ml aprotinin, and 0.7 µg/ml pepstain). Cells were allowed to lyse for 30 min at 4°C with agitation, and the collected total cell lysates were cleared by centrifugation. Protein samples were resolved in SDS-PAGE and transferred to nitrocellulose membranes using iBlot system (Invitrogen). Phosphorylated ERK was detected using specific antibodies as described previously. Chemiluminescence signals on the blots were detected on X-ray films.

The target of series [2] is T1, MT1. Briefly: Inhibition of forskolin-stimulated cAMP accumulation in MT1-CHO cells. It counts as cell-based. On the set-up: expressed in transfected cells. The protocol: (§4) Both MT1 and MT2 are classified as Gi-coupled receptors with their activation leading to inhibition of intracellular cAMP production. The ability of the tested compounds to activate the endogenously expressed Gi-mediated inhibition of cAMP production was therefore examined.
(§5) All the responses were expressed as the percentage of that induced by forskolin alone (as 100%).
(§6) 2×10^5 cells were seeded in each well of 12-well plates and grown for overnight. Each well was labeled with 1 ml of [^3H]adenine (1 µCi/ml) in F-12K medium containing 1% FBS (vol/vol) for overnight. The labeling media were then replaced by 1 ml of 20 mM HEPES-buffered F-12K containing 1 mM isobutylmethylxanthine (IBMX) and the tested compounds at desired concentrations, and incubated at 37°C for 30 min. The reaction was stopped by aspiration and adding 1 ml prechilled 5% trichloroacetic acid (w/v) with 1 mM ATP, and stored at 4°C for 30 min. [^3H]cAMP was extracted from the pool of labeled adenosine nucleotides by sequential ion-exchange chromatography as previously described. The radioactivity of labeled cAMP and total labeled nucleotide fractions separated by chromatography were estimated by scintillation counting. Inhibition curves were constructed by non-linear regression using GraphPad Prism 3.

For series [3], the target named is T2, MT2 (Homo sapiens, UniProt P49286).
T2 sequence (P49286 1-362): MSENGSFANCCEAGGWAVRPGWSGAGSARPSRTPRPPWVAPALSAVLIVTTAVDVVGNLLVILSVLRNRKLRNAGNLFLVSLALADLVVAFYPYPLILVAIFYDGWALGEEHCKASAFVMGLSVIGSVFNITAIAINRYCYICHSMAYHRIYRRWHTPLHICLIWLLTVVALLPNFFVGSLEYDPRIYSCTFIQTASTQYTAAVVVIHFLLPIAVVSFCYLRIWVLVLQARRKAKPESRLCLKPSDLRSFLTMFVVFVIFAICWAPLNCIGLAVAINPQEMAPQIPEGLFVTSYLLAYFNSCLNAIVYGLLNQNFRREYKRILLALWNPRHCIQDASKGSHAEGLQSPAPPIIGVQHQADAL
As to the kind of experiment: biochemical. The settings on record: for Ki: MT2 Ki, calculated from mean pIC50 (Cheng-Prusoff), 1 nM [3H]melatonin, intact CHO cells; for Emax: read-out: MT2 %Resp±SEM (percentage of melatonin-mediated displacement of radioligand binding).
Experimental: (§8) Competitive receptor binding characteristics of melatonin and the 15 tested compounds towards human MT1 and MT2 stably expressed in Chinese hamster ovary (CHO) cells were determined using intact cell preparation pre-incubated with 1 nM [^3H]melatonin.
(§9) Individual melatonin receptor subtype (either MT1 or MT2) was stably co-expressed with a G protein chimera 16z25 in Chinese hamster ovary (CHO) cells, hereafter denoted as CHO-hMT1 and CHO-hMT2, respectively. […] Single cell-derived colonies of the stable lines with sufficiently high receptor density and robust responses in the fluorometric assay (as described below) were isolated from the pool of transfected cell. Usage of these clonal lines was limited to 15 passages to prevent degradation of signal detection.
(§10) Competitive binding assays were performed as described [26]. Cells were suspended in binding buffer (50 mM Tris, 2 mM MgCl2, 1 mM EGTA, pH 7.4) in the density of 1.5×10^5 cell/ml. 1 nM [^3H]melatonin and increasing concentrations of a tested compound was included. Cells were incubated at 4°C for 60 min with intermittent agitation and the reaction was stopped by rapid filtration through GF/C filters pre-soaked in 10 mM Tris, pH 7.4 and washed with 1 ml of prechilled binding buffer. Retained radioactivity was measured with Wallac 1450 Microbeta Jet scintillation counter. Competition curves were drawn as one-site competition nonlinear regression model using GraphPad Prism 3.03 to the data which were means ± SEM of 3–4 independent experiments performed in duplicates. In every assay, melatonin was included as standard reference with highly reproducible Ki values, which were calculated using the Cheng-Prusoff equation.

In series [4] the target is T2, MT2. Briefly: Inhibition of forskolin-stimulated cAMP accumulation in MT2-CHO cells. It counts as cell-based. On the set-up: expressed in transfected cells. Conditions: for IC50: MT2-CHO cells, 50 µM forskolin, calculated from mean pIC50, read-out: MT2 IC50, inhibition of cAMP production. As to the method:
as §4, §5, §6

Series [5] addresses T2, MT2. The settings on record: Ki(MT1)/Ki(MT2).
Experimental: as §8, §9, §10
In series [6] the target is T2, MT2. Briefly: Intracellular Ca2+ mobilization (FLIPR) in MT2-CHO cells co-expressing 16z25. In kind it is cell-based. On the set-up: expressed in transfected cells. The settings on record: for EC50 / Ca2+ mobilization activity at MT2 (in words) / MT2 EC50, Ca2+ mobilization: MT2-CHO cells, FLIPR; for EC50 / MT2 EC50, Ca2+ mobilization: calculated from mean pEC50, NSR = no significant response for up to 30 µM; for EC50: read-out: MT2 EC50, Ca2+ mobilization; for Emax: MT2, percentage of melatonin (MT)-mediated stimulation of Ca2+ signal, read-out: MT2 %Resp ±SEM, Ca2+ signal; for shift of melatonin dose-response curve in FLIPR assay, MT2-CHO (competitive antagonism): preincubation with 10 µM or 1 µM of 7e or 7f. As to the method: (§7) Tested compounds in different concentrations were diluted in assay buffer in 5× of the final desired concentrations in a V-bottomed microplate, and both the cell and compound plates were put into the fluorometric imaging plate reader FLIPR^TETRA (Molecular Devices, Sunnyvale, CA). […] The peak of the time course of fluorescence changes was expressed in relative fluorescence units (RFU). Dose response curves were constructed by non-linear regression using GraphPad Prism 3.

Series [7] addresses T1, MT1. Briefly: Intracellular Ca2+ mobilization (FLIPR) in MT1-CHO cells co-expressing 16z25. The arrangement: expressed in transfected cells. It counts as cell-based. As to the method: as §7
Background: Calcium flux is commonly read through the fluorescence of an indicator in the cells.

For series [8], the target named is T1, MT1. As to the kind of experiment: biochemical. Conditions: for Emax: read-out: MT1 %Resp±SEM (percentage of melatonin-mediated displacement of radioligand binding).
Experimental: as §8, §9, §10
The target in series [9] is T1, MT1. Conditions: 1 nM [3H]melatonin, intact CHO cells, 4°C 60 min; mean ± SEM of 3–5 trials; NSB = no specific binding for up to 30 µM.
Experimental: as §8, §9, §10
Series [10] has as its target T2, MT2. Briefly: Immunodetection of ERK phosphorylation in MT2-CHO cells. It counts as cell-based. On the set-up: expressed in transfected cells. The settings on record: for suppression of melatonin-induced ERK phosphorylation in MT2-CHO cells (antagonism): 1 nM melatonin (MLT), 7e and 7f at 10 µM; for ERK phosphorylation in MT2-CHO cells (in words): immunoblot. As to the method:
as §1, §2, §3
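For MT1 pIC50±SEM in this document: competitive radioligand displacement on intact CHO cells stably co-expressing human MT1 together with the G protein chimera 16z25, using rising concentrations of each compound.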
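For Selectivity, ratio Ki(MT1)/Ki(MT2) in this document: competition binding on intact CHO cells stably co-expressing human MT2 with G protein chimera 16z25, displacing [3H]melatonin at 4°C over 60 min, melatonin run as reference.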

T1 sequence (P48039 whole entry): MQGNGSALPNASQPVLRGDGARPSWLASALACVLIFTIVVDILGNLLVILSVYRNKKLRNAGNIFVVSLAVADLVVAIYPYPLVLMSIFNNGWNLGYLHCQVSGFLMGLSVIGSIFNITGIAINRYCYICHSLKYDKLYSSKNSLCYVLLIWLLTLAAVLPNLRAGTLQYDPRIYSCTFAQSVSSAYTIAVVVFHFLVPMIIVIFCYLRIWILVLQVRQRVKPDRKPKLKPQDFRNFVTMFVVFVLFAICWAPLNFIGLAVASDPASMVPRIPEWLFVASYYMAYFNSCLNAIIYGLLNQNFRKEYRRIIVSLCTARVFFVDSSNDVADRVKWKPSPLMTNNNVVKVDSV

Regarding `COc1cc(COc2cc3ccn(C)c(=O)c3cc2OC)cc(OC)c1` [7c, 6-(3,5-Dimethoxy-benzyloxy)-7-methoxy-2-methylisoquinolin-1(2H)-one], on MT1 [1], the “concentration inducing weak ERK phosphorylation in MT1-CHO cells” value is reported as more than 1 µM. Also, the “MT1 IC50, inhibition of cAMP production” value at MT1 [2] (MT1-CHO cells, 50 µM forskolin, calculated from mean pIC50, NSR = no significant response for up to 10 µM) is reported as “NSR ^b”. The values for the IC50 against MT2 [3], on MT2 [4] and against MT1 [8] were 1170 nM, 2460 nM and 57.5 µM, respectively. In addition, the Ki (usually a dissociation constant, usually derived from enzyme kinetics or from competition with a known ligand) was 350 nM on MT2 [3] and 13.1 µM at MT1 [8]. Moreover, the results for the Emax on MT2 [3], on MT2 [6] and at MT1 [8] were 73 ± 9%, 90 ± 16% and 41 ± 9%, respectively. Also, at MT2 [4] (extrapolated %Inhmax from non-linear regression, MT2-CHO), the “MT2 %Inhmax ±SEM, extrapolated” value is reported as 72±3 ^c %. The “Selectivity, ratio Ki(MT1)/Ki(MT2)” value on MT2 [5] is 37.6. The results for the EC50 at MT2 [6] and on MT1 [7] were 21 nM and 266 nM, respectively. For the same molecule, the “concentration to induce exclusive MT2 activation (Ca2+ signal)” value at MT2 [6] (from concentration response curves, Figure 4) is listed as less than 10 nM. The “fold less potent than 7b (EC50, Ca2+ signal, MT2)” value on MT2 [6] (relative to 7b, MT2-CHO) is given as approximately 70 fold. Moreover, the “MT1 %Resp ±SEM, Ca2+ signal” value at MT1 [7] (percentage of melatonin (MT)-mediated stimulation of Ca2+ signal) is reported as 65±10%.
Regarding `COc1ccccc1COc1cc2ccn(C)c(=O)c2cc1OC` [7d, 7-Methoxy-6-(2-methoxy-benzyloxy)-2-methylisoquinolin-1(2H)-one], the melting point (usually the temperature, or range, at which the solid turns liquid) was in the range of 150 to 152 °C. At MT1 [9], the “MT1 pIC50±SEM” value is listed as “NSB”. Further, on MT1 [2] (forskolin-stimulated), the “inhibition of cAMP levels in MT1-CHO cells (in words)” value is “observable inhibition”. Also, the “MT1 %Inhmax ±SEM” value on MT1 [2] (maximal percentage inhibition of the forskolin-elevated cAMP level, MT1-CHO) came out at 33±13%. The IC50 (as a rule, the concentration that gives 50% inhibition) on MT1 [2] (read-out: MT1 IC50, inhibition of cAMP production) was 396 nM. On MT2 [3], the concentration for half-maximal inhibition (IC50) is 2240 nM, the Ki was 674 nM and the Emax amounted to 79 ± 5%. Further, the IC50 on MT2 [4] was 247 nM. For the same molecule, the “MT2 %Inhmax ±SEM” value at MT2 [4] (maximal percentage inhibition of the forskolin-elevated cAMP level, MT2-CHO) is 59±5%. Moreover, at MT2 [6] (MT2-CHO), the “reduction of ability to trigger Ca2+ signal on moving methoxy from meta to ortho (vs 7b)” value is recorded as 2 orders of magnitude. On MT2 [6], the EC50 – broadly, the midpoint of the concentration-response curve – was 25.7 nM and the Emax stood at 85 ± 22%.
As for `COc1ccc(COc2cc3ccn(C)c(=O)c3cc2OC)cc1` [7e, 7-Methoxy-6-(4-methoxy-benzyloxy)-2-methylisoquinolin-1(2H)-one], the melting point was in the range of 170 to 172 °C. On MT1 [9], the “MT1 pIC50±SEM” value is reported as “NSB”. Besides, on MT2 [10], the “suppression of melatonin-induced ERK phosphorylation in MT2-CHO cells (antagonism)” value is given as “reduced to almost the basal level”. On MT2 [10] (agonist 7b 100 nM, 7e at 10 µM), the “suppression of 7b-induced ERK phosphorylation in MT2-CHO cells (antagonism)” value is recorded as “significantly suppressed”. In addition, on MT2 [3], the IC50 was 1120 nM, the Ki was 334 nM and the Emax turned out to be 47 ± 5%. On MT2 [6], the “Ca2+ mobilization activity at MT2 (in words)” value (shortened to “Ca2+ mobilization activity”) is on record as “null response”; the “MT2 EC50, Ca2+ mobilization” value is listed as “NSR”; the “shift of melatonin dose-response curve in FLIPR assay, MT2-CHO (competitive antagonism)” value was “parallel right shift”.
On to `COc1cc2c(=O)n(C)ccc2cc1OCc1ccc(C)cc1` [7f, 7-Methoxy-2-methyl-6-(4-methyl-benzyloxy)-isoquinolin-1(2H)-one], for which the melting point fell in the range of 120 to 122 °C. In addition, on MT2 [10], the “suppression of melatonin-induced ERK phosphorylation in MT2-CHO cells (antagonism)” value is given as “partial inhibition”. Also, on MT2 [3], the IC50 was 1100 nM, the Ki was 333 nM and the Emax was found to be 70 ± 6%. Further, at MT2 [5], the “Selectivity, ratio Ki(MT1)/Ki(MT2)” value is recorded as 6.13. In addition, on MT2 [6], the “MT2 EC50, Ca2+ mobilization” value is reported as “NSR” and the “shift of melatonin dose-response curve in FLIPR assay, MT2-CHO (competitive antagonism)” value is given as “parallel right shift”. In addition, at MT1 [8], the IC50 is 8.91 µM, the Ki came to 2.04 µM and the Emax came to 38 ± 10%.
`COc1cc2ccn(C)c(=O)c2cc1OCc1ccccc1` [14a, 7-Benzyloxy-6-methoxy-2-methylisoquinolin-1(2H)-one] had a melting point of 132 to 134 °C. In addition, the “MT1 pIC50±SEM” value at MT1 [9] is given as “NSB”. For the same molecule, on MT2 [10], the “ERK phosphorylation in MT2-CHO cells (in words)” value is “essentially inactive”. Further, at MT2 [3], the IC50 was 14800 nM, the Ki was 4460 nM and the Emax was 78 ± 8%. Also, on MT2 [6], the “Ca2+ mobilization activity” value was “basically inactive” and the “MT2 EC50, Ca2+ mobilization” value was “NSR”.
`COc1cc2ccn(C)c(=O)c2cc1OCc1ccc(C)cc1` [14d, 6-Methoxy-2-methyl-7-(4-methyl-benzyloxy)-isoquinolin-1(2H)-one] showed a melting point of 150 to 152 °C. Further, the “MT1 pIC50±SEM” value at MT1 [9] was “NSB”. In addition, on MT2 [10], the “ERK phosphorylation in MT2-CHO cells (in words)” value was “essentially inactive”. Also, at MT2 [3], half-maximal inhibition (IC50) required 13800 nM, the Ki is 4150 nM and the Emax stood at 73 ± 10%. At MT2 [6], the “Ca2+ mobilization activity” value was “basically inactive” and the “MT2 EC50, Ca2+ mobilization” value is recorded as “NSR”.
